The source of these data is patent US20220340564A1, “ANTIBACTERIAL COMPOUNDS” (Janssen Sciences Ireland Unlimited Company, priority 2019, published 2022).

The subject of this test is Mycobacterium tuberculosis strain EH4.0 expressing green-fluorescent protein (GFP). The test can be described thus: microbe, parasite or virus in culture. It is filed as cell-based. The following applies: 168 h, read-out: pIC50 (converted).

For `O=C(NCc1ccc(N2CCN(S(=O)(=O)C(F)(F)F)C=N2)c(F)c1)c1c(C(F)(F)F)nc2cc(F)c(Cl)cn12` [Compound 114], the IC50 is 16.2 nM.
`CCc1nc2cc(OC)c(Cl)cn2c1C(=O)NCc1ccc(N2CCN(S(=O)(=O)C(F)(F)F)C(OC)=N2)c(F)c1` [Compound 46]: the IC50 is 100 nM.
As for `CCc1nc2ccc(Cl)cn2c1C(=O)NCc1ccc(N2CCN(S(=O)(=O)C(F)(F)F)C(C)=N2)cc1` [Compound 21], the figure is 2.51 nM; as for `CCc1nc2cc(F)c(Cl)cn2c1C(=O)NCc1ccc(N2CCN(S(=O)(=O)C(F)(F)F)C(OC)=N2)c(F)c1` [Compound 141], 4.9 nM.
As for `CCc1nc2nc3c(cn2c1C(=O)NCc1ccc(N2CCN(S(=O)(=O)C(F)(F)F)C=N2)c(F)c1)CCOC3` [Compound 169], the figure is 10 nM; as for `CCc1nc2nc(N)c(Cl)cn2c1C(=O)NCc1ccc(N2CCN(S(=O)(=O)C(F)(F)F)C=N2)c(F)c1` [Compound 126], 9.77 nM.
With `Cc1cn2c(C(=O)NCc3ccc(N4CCN(S(=O)(=O)C(F)(F)F)C=N4)c(F)c3)c(C)nc2s1` [Compound 153], the IC50 is 1.78 nM.
As for `CCc1nc2cc(OC)ccn2c1C(=O)NCc1ccc(N2CCN(S(=O)(=O)C(F)(F)F)C(OC)=N2)cc1` [Compound 52], the figure is 41.7 nM.
Regarding `CCc1nc2cc(OC)c(Cl)cn2c1C(=O)NCc1ccc(N2CCN(S(=O)(=O)C(F)(F)F)C=N2)c(F)c1` [Compound 93], the IC50 was 49 nM.
To `CCc1nc2ccc(Cl)cn2c1C(=O)NCc1ccc(N2CCN(S(=O)(=O)C(F)(F)F)C(CN(C)C)=N2)cc1` [Compound 74] belongs 6.76 nM; to `Cc1ccc2nc(C(F)(F)F)c(C(=O)NCc3ccc(N4CCN(S(=O)(=O)C(F)(F)F)C=N4)c(F)c3)n2c1` [Compound 175], 1.58 nM; to `O=C(NCc1cnc(N2CCN(S(=O)(=O)C(F)(F)F)C=N2)c(F)c1)c1c(C(F)(F)F)nc2c(F)cccn12` [Compound 182], 31.6 nM.
To `COC1=NN(c2ccc(CNC(=O)c3c(C(F)(F)F)nc4n3CCCC4)cc2F)CCN1S(=O)(=O)C(F)(F)F` [Compound 112] belongs 17.4 nM; to `CCc1nc2ccc(Cl)cn2c1C(=O)NCc1ccc(N2CCN(c3nccs3)C=N2)cc1` [Compound 76], 13.5 nM; to `CCc1nc2ncc(Cl)cn2c1C(=O)NCc1ccc(N2CCN(S(=O)(=O)C(F)(F)F)C(CCO)=N2)cc1` [Compound 41], 50.1 nM.
Turning to `COC1=NN(c2ccc(CNC(=O)c3c(C)nn4ccc(OC)cc34)cc2)CCN1S(=O)(=O)C(F)(F)F` [Compound 34], the IC50 was 10 nM.
As for `CCc1nc2ccc(OC)cn2c1C(=O)NCc1ccc(N2CCN(S(=O)(=O)C(F)(F)F)C(OC)=N2)c(F)c1` [Compound 48], the IC50 is 1.58 nM.
To `CCc1nc2nc3c(cn2c1C(=O)NCc1ccc(N2CCN(S(=O)(=O)C(F)(F)F)C(C)=N2)cc1)CCOC3` [Compound 217] belongs 14.1 nM.
Regarding `CCc1nc2ncc(OC)cn2c1C(=O)NCc1ccc(N2CCN(S(=O)(=O)C(F)(F)F)C(OC)=N2)c(F)c1` [Compound 50], the IC50 was 1.07 nM.
For the compound `CCc1nc2ncc(C(=O)NC)cn2c1C(=O)NCc1ccc(N2CCN(S(=O)(=O)C(F)(F)F)C=N2)cc1` [Compound 61], the IC50 is not below 501 nM.
To `CCc1nc2ccc(OC)cn2c1C(=O)NCc1ccc(N2CCN(S(=O)(=O)C(F)(F)F)C=N2)cc1` [Compound 42] belongs 6.31 nM.
To `CCc1nc2ccc(C3CC3)cn2c1C(=O)NCc1ccc(N2CCN(S(=O)(=O)C(F)(F)F)C=N2)c(F)c1` [Compound 101] belongs 29.5 nM.
As for `CCc1nc2ccc(C)cn2c1C(=O)NCc1ccc(N2CCN(S(=O)(=O)C(F)(F)F)C(C)=N2)cc1` [Compound 215], the IC50 is 0.912 nM.
`CCOc1ccc2nc(CC)c(C(=O)NCc3ccc(N4CCN(S(=O)(=O)C(F)(F)F)C=N4)cc3)n2c1` [Compound 43]: the IC50 was 10 nM.
To `COc1ccn2nc(C)c(C(=O)NCc3ccc(N4CCN(S(=O)(=O)C(F)(F)F)C=N4)cc3)c2c1` [Compound 14] belongs 6.31 nM; to `CCc1nc2ncc(Cl)cn2c1C(=O)NCc1ccc(N2CCN(S(=O)(=O)CC(C)C)C=N2)cc1` [Compound 23], 12.6 nM.
For the compound `CCc1nc2ccc(Cl)cn2c1C(=O)NCc1ccc(N2CCN(S(=O)(=O)C(F)(F)F)C=N2)c(C)c1` [Compound 5], the IC50 was 7.94 nM.
`CCc1nc2nc(OCc3ccccc3)c(F)cn2c1C(=O)NCc1ccc(N2CCN(S(=O)(=O)C(F)(F)F)C=N2)c(F)c1` [Compound 189]: the IC50 is not below 501 nM.
As for `CCc1nc2ccc(Cl)cn2c1C(=O)NCc1ccc(N2CCN(S(=O)(=O)CC(C)C)C=N2)cc1` [Compound 17], the figure is 20 nM; as for `CCc1nc2ccc(Cl)cn2c1C(=O)NCc1ccc(N2CCN(C(=O)C(F)(F)F)C=N2)cc1` [Compound 66], 251 nM; as for `CCc1nc2nc(Cl)ccn2c1C(=O)NCc1ccc(N2CCN(S(=O)(=O)C(F)(F)F)C=N2)c(F)c1` [Compound 125], 9.77 nM.
To `CCc1nc2ccc(C#N)cn2c1C(=O)NCc1ccc(N2CCN(S(=O)(=O)C(F)(F)F)C=N2)cc1` [Compound 72] belongs 158 nM; to `CCc1nc2nc(C)c(C)cn2c1C(=O)NCc1ccc(N2CCN(S(=O)(=O)C(F)(F)F)C(OC)=N2)c(F)c1` [Compound 211], 2.29 nM.
As to `CCc1nc2cc(OC)c(Cl)cn2c1C(=O)NCc1ccc(N2CCN(S(=O)(=O)C(F)(F)F)C(OC)=N2)cc1` [Compound 68], the IC50 is not below 501 nM.
With `CCc1nc2c(C)cc(C)cn2c1C(=O)NCc1cnc(N2CCN(S(=O)(=O)C(F)(F)F)C=N2)c(F)c1` [Compound 183], the IC50 is 200 nM.
To `CCc1nc2cc3c(cn2c1C(=O)NCc1ccc(N2CCN(S(=O)(=O)C(F)(F)F)C=N2)c(F)c1)OCO3` [Compound 134] belongs 7.59 nM.
To `CCc1nc2ccc(Cl)cn2c1C(=O)NCc1ccc(N2CCN(c3cccs3)C(OC)=N2)cc1` [Compound 120] belongs 12.9 nM.
As for `COC1=NN(c2ccc(CNC(=O)c3c(C(F)F)nc4ccccn34)cc2F)CCN1S(=O)(=O)C(F)(F)F` [Compound 160], the IC50 was 1.2 nM.
As for `CCc1nc2ccc(F)cn2c1C(=O)NCc1ccc(N2CCN(S(=O)(=O)C(F)(F)F)C(OC)=N2)c(F)c1` [Compound 204], the figure is 4.47 nM; as for `CCC1=NN(c2ccc(CNC(=O)c3c(CC)nc4ccc(Cl)cn34)cc2)CCN1S(=O)(=O)C(F)(F)F` [Compound 2], 15.8 nM.
`CCc1nc2ncc(C(=O)N(C)C)cn2c1C(=O)NCc1ccc(N2CCN(S(=O)(=O)C(F)(F)F)C=N2)cc1` [Compound 60]: the IC50 was 200 nM.
For `CCc1nc2ccc(Cl)cn2c1C(=O)NCc1ccc(N2CCN(S(=O)(=O)C(F)(F)F)C(C)=N2)c(F)c1` [Compound 213], the IC50 was 3.47 nM.
In the case of `CCc1nc2cc3c(cn2c1C(=O)NCc1ccc(N2CCN(S(=O)(=O)C(F)(F)F)C=N2)c(F)c1)OCCO3` [Compound 100], the IC50 was 31.6 nM.
As for `CCc1nc2ccc(Cl)cn2c1C(=O)NCc1ccc(N2CCN(S(=O)(=O)C(F)(F)F)C(CC#N)=N2)cc1` [Compound 77], the figure is 7.94 nM; as for `CCc1nc2cc(NC)c(Cl)cn2c1C(=O)NCc1ccc(N2CCN(S(=O)(=O)C(F)(F)F)C=N2)c(F)c1` [Compound 80], not below 501 nM; as for `CCc1nc2ncc(Cl)cn2c1C(=O)NCc1ccc(N2CCN(S(=O)(=O)C(F)(F)F)C=N2)c(F)c1` [Compound 146], 3.8 nM.
As for `CCc1nc2ncc(F)cn2c1C(=O)NCc1ccc(N2CCN(S(=O)(=O)C(F)(F)F)C(OC)=N2)c(F)c1` [Compound 121], the figure is 12.9 nM.
As for `CCc1nc2cc3c(cn2c1C(=O)NCc1ccc(N2CCN(S(=O)(=O)C(F)(F)F)C=N2)c(F)c1)OCCN3C` [Compound 191], the figure is 38 nM; as for `CCc1nc2sc(C)cn2c1C(=O)NCc1ccc(N2CCN(S(=O)(=O)C(F)(F)F)C=N2)c(F)c1` [Compound 163], 0.316 nM; as for `CCc1nc2ccc(Cl)cn2c1C(=O)NCc1ccc(N2CCN(Cc3nc(C(F)(F)F)cs3)C=N2)cc1` [Compound 69], 126 nM.
Regarding `CCc1nc2ccc(Cl)cn2c1C(=O)NCc1ccc(N2CCN(S(=O)(=O)C(F)(F)F)C(CCO)=N2)cc1` [Compound 40], the IC50 was 63.1 nM.
For `COC1=NN(c2ccc(CNC(=O)c3c(C(F)(F)F)nc4n3CCCC4)cc2)CCN1S(=O)(=O)C(F)(F)F` [Compound 98], the IC50 is 33.1 nM.
For `CCc1nc2n(ccc3ncnn32)c1C(=O)NCc1ccc(N2CCN(S(=O)(=O)C(F)(F)F)C=N2)c(F)c1` [Compound 207], the IC50 is 186 nM.
As for `Cc1nc2sc(Cl)cn2c1C(=O)NCc1ccc(N2CCN(S(=O)(=O)C(F)(F)F)C=N2)c(F)c1` [Compound 133], the figure is 7.59 nM; as for `CCc1nc2nc(C)c(Cl)cn2c1C(=O)NCc1ccc(N2CCN(S(=O)(=O)C(F)(F)F)C=N2)c(F)c1` [Compound 155], 1.62 nM.
As for `CCc1nc2cc(C)c(Cl)cn2c1C(=O)NCc1ccc(N2CCN(S(=O)(=O)C(F)(F)F)C=N2)c(F)c1` [Compound 116], the figure is 15.1 nM.
Consider `CCc1nc2ncc(Cl)cn2c1C(=O)NCc1ccc(N2CCN(C(C)=O)C=N2)cc1` [Compound 24], for which the IC50 was 15.8 nM.
In the case of `O=C(NCc1ccc(N2CCN(S(=O)(=O)C(F)(F)F)C=N2)c(F)c1)c1c(C(F)F)nc2n1CCCC2` [Compound 147], the IC50 was 3.8 nM.
For the compound `O=C(NCc1ccc(N2CCN(S(=O)(=O)C(F)(F)F)C=N2)cc1)c1c(C(F)F)nc2n1CCCC2` [Compound 104], the IC50 is 28.2 nM.
As for `CCc1nc2ccc(Cl)cn2c1C(=O)NCc1ccc(N2CCNC=N2)cc1` [Compound 56], the figure is 158000 nM; as for `CCc1nc2cc(Br)c(Cl)cn2c1C(=O)NCc1ccc(N2CCN(S(=O)(=O)C(F)(F)F)C=N2)c(F)c1` [Compound 103], 28.2 nM; as for `COC1=NN(c2ccc(CNC(=O)c3c(C(F)(F)F)nc4ccccn34)cc2F)CCN1S(=O)(=O)C(F)(F)F` [Compound 79], 3.72 nM.
As for `CCc1nc2ncc(Cl)cn2c1C(=O)NCc1ccc(N2CCN(S(=O)(=O)C(F)(F)F)C(OC)=N2)cc1` [Compound 27], the figure is 2 nM.
